Measured values from US20250042942A1, “PEPTIDE HAVING PHYSIOLOGICAL ACTIVITIES AND USE THEREOF” (CAREGEN CO., LTD., priority 2021, published 2025).
Peptide text beside a SMILES is read from it.

System: mouse RAW264.7 cell line
Test: Cytotoxicity, CCK-8 assay
Assay type: cell-based
Details: peptide 10, 30, 30, 100, and 150 μg/ml, 3 days, CCK-8, FIG. 10B
Procedure: The effect of the peptide of the present invention on cell proliferation was confirmed using CCK-8 assay. CCK-8 reagent is reduced by cellular dehydrogenase to produce a colored product, and the proliferation of cells may be confirmed through a difference in absorbance using this.
After removing the medium, CCK-8 solution (Dojindo, CCK-8 kit) was diluted 10 times in the culture medium and treated at 100 μl each. During incubation at 37° C., absorbance at a wavelength of 450 nm was measured using a microplate reader at 30-minute intervals.

CC[C@H](C)[C@H](NC(=O)[C@H](C)NC(=O)[C@@H](N)CC(N)=O)C(=O)N[C@@H](CO)C(=O)N[C@H](C(=O)N[C@@H](CC(C)C)C(=O)N[C@@H](Cc1ccc(O)cc1)C(=O)N[C@@H](Cc1ccccc1)C(=O)N[C@@H](CC(=O)O)C(=O)N[C@@H](CC(=O)O)C(=O)N[C@@H](CO)C(=O)O)C(C)C [SEQ ID NO: 1, NAISVLYFDDS] (H-NAISVLYFDDS-OH)
toxicity to mouse macrophages: not toxic
